Measured values from US20220175926A1, “TARGETED SYNERGISTIC CANCER IMMUNOTHERAPY” (The Brigham and Women's Hospital, Inc., priority 2019, published 2022).

Assays:
[1] = Loading efficiency in liposomes; assay type: physicochemical; conditions: sonosensitizer incubated with preformed liposomes at room temperature
Experimental: The lipid suspension was extruded through the 100 nm polycarbonate membrane using the extruder (Avanti, AL, USA) to obtain blank liposomes. Ethanol was removed by dialysis overnight at 4° C. To load the sonosensitizer in liposomes, ICG was firstly conjugated to a lipid tail such as DOPE before incubation with preformed blank liposomes at room temperature for 30 min. Unloaded ICG was removed by using the PD-10 column (GE Healthcare). To load PAPC (Avanti, AL, USA) in liposomes, the proper amount of PAPC in DMSO stock solution was incubated with liposomes containing ICG at room temperature for 30 min and the obtained formulation was used without further purification. To load R848 (Sigma, MO, USA) in liposomes, blank liposomes were firstly prepared in 250 mM ammonium sulfate, and the external ammonium sulfate was exchanged to 10% sucrose by dialysis overnight at 4° C., followed by incubation with R848 at 55° C. for 30 min and removal of unloaded R848 by dialysis overnight at 4° C. To measure the size of liposomes, 10 ul of liposomes were diluted to 2 mL with PBS and the size was measured with Zeta sizer. To measure the amount of ICG, 10 ul liposomes were added with 190 ul DMSO and the fluorescence was measured at Ex=780 nm, Em=810 nm.

[2] = Pharmacokinetic study after intravenous injection; assay type: in vivo; conditions: C57BL/6 mice
Experimental: C57BL/6 mice were intravenously injected with free ICG or lipo-ICG (liposome encapsulated ICG). At predetermined time points (0.25, 1, 3, 7, and 24 h post injection), 50 ul blood were collected in Microvette 500 Z-gel tubes by submandibular bleeding and kept on ice. The samples were centrifuged at 10,000 g for 5 min at room temperature, and 10 ul of the serum were diluted to 100 ul with PBS and the fluorescence intensity was measured at Ex=780, Em=810 nm.

RAW 264.7 macrophages = experiment: TNFα secretion from RAW 264.7 macrophages (ELISA); assay type: cell-based, mouse; conditions: RAW264.7 macrophages; compared with no treatment control
Experimental: RAW 264.7 macrophages (ATCC, VA, USA) were seeded in a 96 well plate at a density of 20,000 cells per well. Cells were incubated with 10 ng/mL R848 (Sigma, MO, USA) and/or 20 ng/mL ICG (Sigma, MO, USA) for 24 h. Ultrasound irradiation (frequency: 1 MHz; duty cycle: 50%; power: 2 W/cm^2) was applied to these cells for up to 5 min. TNFα secretion was analyzed by mouse TNFα DuoSet ELISA (R&D Systems, MN, USA) following the manufacturer's instructions. […] In some experiments, cells were also treated with 0.5, 1, or 2 mM of ROS scavenger N-acetyl-cysteine (Sigma, MO, USA) right before treatment with ultrasound.

CT26 = experiment: Transwell co-culture assay, viability of CT26 tumor cells cocultured with RAW 264.7 macrophages (XTT); assay type: cell-based; conditions: single component or component removed
Experimental: RAW 264.7 macrophages were seeded in a Transwell insert at a density of 200,000 cells per insert (Corning, N.Y., USA) and CT26 (ATCC, VA, USA) were seeded in the lower compartment at a density of 200,000 cells per well, which was separated by a porous membrane (well area: 0.3 cm^2, insert size: 6.5 mm). Cells were incubated with […] and/or 20 ng/mL ICG for 24 h. Ultrasound irradiation (frequency: 1 MHz; duty cycle: 50%; power: 2 W/cm^2) was performed for 5 min. The viability of tumor cells after treatment with different formulations in the absence or presence of ultrasound was determined by XTT Cell Proliferation Assay Kit (ATCC, VA, USA) following the manufacturer's instructions.

iBMDM = experiment: IL-1β secretion from iBMDM (ELISA); assay type: cell-based, mouse
Experimental: RAW 264.7 macrophages (ATCC, VA, USA) were seeded in a 96 well plate at a density of 20,000 cells per well. Cells were incubated with 10 ng/mL R848 (Sigma, MO, USA) and/or 20 ng/mL ICG (Sigma, MO, USA) for 24 h. Ultrasound irradiation (frequency: 1 MHz; duty cycle: 50%; power: 2 W/cm^2) was applied to these cells for up to 5 min. TNFα secretion was analyzed by mouse TNFα DuoSet ELISA (R&D Systems, MN, USA) following the manufacturer's instructions. To measure IL-1β secretion, immortal bone marrow derived macrophages or iBMDM (BCH, MA, USA)) were seeded in a 96 well plate at a density of 20,000 cells per well. Cells were incubated with 10 ng/mL PAPC (Avanti, AL, USA) and/or 20 ng/mL ICG for 24 h. Ultrasound irradiation (frequency: 1 MHz; duty cycle: 50%; power: 2 W/cm^2) was applied to these cells for up to 5 min. IL-1β secretion was analyzed by mouse IL-1β ELISA (Invitrogen, CA, USA) following the manufacturer's instructions. In some experiments, cells were also treated with 0.5, 1, or 2 mM of ROS scavenger N-acetyl-cysteine (Sigma, MO, USA) right before treatment with ultrasound.

SMILES: CC1(C)C(/C=C/C=C/C=C/C=C2\N(CCCCS(=O)(=O)O)c3ccc4ccccc4c3C2(C)C)=[N+](CCCCS(=O)(=O)[O-])c2ccc3ccccc3c21 [ICG, indocyanine green]
- loading efficiency [1]: less than 20%
- detectability of ICG in serum after injection [2]: not detectable within a few minutes after injection
- TNFα release (RAW 264.7 macrophages): didn't induce significant TNFα release
- CT26 cell viability (CT26): modest decrease of CT26 cell viability
- IL-1β release (iBMDM): didn't induce any detectable level of IL-1β

SMILES: CC(=O)N[C@@H](CS)C(=O)O [NAC, N-acetyl-cysteine]
- IL-1β release on ROS depletion (iBMDM; ROS scavenger added to PAPC+ICG+US): dose dependent reduction of IL-1β

SMILES: CCCCC/C=C\C/C=C\C/C=C\C/C=C\CCCC(=O)O[C@H](COC(=O)CCCCCCCCCCCCCCC)COP(=O)([O-])OCC[N+](C)(C)C [PAPC, 1-palmitoyl-2-arachidonoyl-sn-glycero-3-phosphocholine]
- IL-1β release (iBMDM): didn't induce any detectable level of IL-1β
